Experiment: gradient 5% acetonitrile 3 min, to 50% in 2 min, to 85% in 15 min, held 3 min, 100 µL/min
Settings: column: Zorbax Extend-C18 2.1 x 50 mm; eluents: water / acetonitrile, 0.1% formic acid
In short: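 A Zorbax Extend-C18 column (2.1 × 50 mm, 1.8 μm) run at 100 μL/min with water and acetonitrile, both containing 0.1% formic acid, separated mixtures of ~100 pure standards. The HPLC was coupled to a quadrupole time-of-flight mass spectrometer operated in positive and negative ionization mode, with dead and dwell volumes of 40 μL and 900 μL. Each retention time was taken from a computationally picked adduct peak that was then manually inspected.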

Row | RP-LC retention time [s] | SMILES
1 | 931 | COC(=O)c1cccc(C(=O)Nc2cc(C)cc(C)c2)n1
2 | 963 | COCCn1cc2c3c(cccc31)CN(C(=O)Nc1cc(F)cc(F)c1)CC2
3 | 586 | CCN1CCC2(CC1)OC(=O)C(C)=C2C(=O)NCCCN1CCN(c2cc(C)ccc2C)CC1
4 | 821 | CCCC(=O)Nc1nc(-c2ccc3c(c2)N(C)C(=O)CO3)cs1
5 | 610 | COc1cccc(Nc2cc(C)nc3ccnn23)c1
6 | 1030 | CC(=O)N1CCCSc2ccc(S(=O)(=O)N(C)c3ccc(C)c(C)c3)cc21
7 | 612 | CCCCN(C)CCCNC(=O)c1ccc2c(c1)NC(=O)C(C(C)CC)N2 (stereo unspecified)
8 | 743 | O=C(NCc1ccccn1)c1cccn1Cc1noc(-c2ccc(Cl)cc2)n1
9 | 685 | CCC(NC(=O)c1cn2ccc(C)cc2n1)c1cccs1 (stereo unspecified)
10 | 955 | Cc1cc(C)cc(N2CCC(NC(=O)Nc3cc(C)ccc3C)C2=O)c1 (stereo unspecified)
11 | 558 | CCOC(=O)CCC(=O)Nc1nnc2n1CCS2
12 | 1030 | CCc1cccc(NC(=O)N2CCc3cn(CCOC)c4cccc(c34)C2)c1
13 | 736 | CCCCNC(=O)Cc1nnc(-c2ccc(OC)cc2)o1
14 | 747 | CCc1cccc(NC(=O)Nc2ccc3nncn3c2)c1
15 | 908 | O=C(CSc1nnc2c3cc(-c4ccccc4)nn3ccn12)Nc1ccccc1Br
16 | 903 | CCc1nn2c(CNC(=O)c3ccccc3Br)c(-c3ccccc3)nc2s1
17 | 898 | CCN1C(=O)c2cccnc2Sc2cc(NC(=O)c3cc(C)ccc3C)ccc21
18 | 1310 | Cc1ccc(C)c(-c2coc(-c3ccc(NC(=O)c4ccc(Br)o4)cc3)n2)c1
19 | 946 | Cc1ccc(C)c(N2CCN(C(=O)c3c(C)sc4ccn(C)c(=O)c34)CC2)c1
20 | 785 | Cc1cc(SCC(=O)Nc2ccc(Cl)cc2C(F)(F)F)nc(-c2cccnc2)n1
21 | 919 | CCS(=O)(=O)Nc1ccc(-c2noc(COc3ccc(OC)cc3)n2)cc1
22 | 728 | Cc1csc(-c2cn(CC(=O)Nc3ccc(C)c(F)c3)cn2)n1

The remaining lines, values behind:

Row | SMILES | RP-LC retention time [s]
23 | CCOc1ccccc1NC(=O)N1CCN(C(=O)N2C[C@H]3C[C@@H](C2)[C@H]2CCCC(=O)N2C3)CC1 | 687
24 | Cc1cccc(C(=O)N2CCc3ccc(CNC(=O)NCC4CCCO4)cc32)c1 (stereo unspecified) | 894
25 | CCOc1ccc(CNC(=O)C2CCN(S(=O)(=O)N(CC(C)C)CC(C)C)CC2)cc1OC | 1040
26 | CC(C)CN1C(=O)c2cccn2CC1C(=O)NCC1CC1 (stereo unspecified) | 731
27 | Cn1cnc(S(=O)(=O)N2CCC(C(=O)NC3CCCCCC3)CC2)c1 | 680
28 | Cc1ccc(C(C)NC(=O)c2ccc3[nH]cc(C(=O)C(=O)N4CCCCCC4)c3c2)c(C)c1 (stereo unspecified) | 919
29 | Cc1ccnc(N2CCCC(C(=O)NCc3ccc(N(C)C)cc3)C2)n1 (stereo unspecified) | 561
30 | CCN(c1nc(N)c(C(=O)N=C(N)N)nc1Cl)C(C)C | 779
31 | Cc1ccccc1CNS(=O)(=O)c1c[nH]c2ncccc12 | 730
32 | CC(=O)Nc1ccc(C2(C(=O)NCc3ccc(Cl)cc3)CCC2)cc1 | 785
33 | O=S(=O)(c1ccc2nncn2c1)N(Cc1ccc(F)cc1)c1cccc(F)c1 | 861
34 | COc1ccc(C2(C(=O)NCc3ccc4c(c3)ncn4C(C)C)CC2)cc1 | 678
35 | O=C(NCCCn1cccn1)c1cccc2[nH]cc(CN3CCSCC3)c12 | 628
36 | Fc1ccc(Cc2nc(-c3cccc(-c4ccn[nH]4)c3)no2)cc1 | 925
37 | Cc1ccc(CSc2nccc3c2ccn3CC(=O)NCc2cccnc2)cc1 | 823
38 | Cn1cnc(S(=O)(=O)N2CCC(C(=O)NCc3ccc(F)cc3)CC2)c1 | 670
39 | O=C(CSc1nc2ccccc2nc1SCC(=O)N1CCCC1)N1CCCC1 | 743
40 | Cn1c(=O)n(CCN2CCOCC2)c(=O)c2c1nc1n2CCCN1C1CCCCC1 | 627
41 | Nc1ccc(S(=O)(=O)N2CCCCC2c2cccnc2)cc1 (stereo unspecified) | 555
